Test [1] concerns APC hotspot stop codon mutations. Briefly: Dual luciferase reporter plasmid system for APC stop codon readthrough. The format is cell-based. To be noted: HCT116 colorectal cancer cells; APC hotspots 1061, 1554, 1450; tylosin 4-80 μg/ml. Here is the method: HCT116 CRC cells (control cells carrying a wild-type APC) were cultured in Dulbecco's modified Eagle's medium (DMEM) supplemented with 10% fetal calf serum (FCS) and 100 units/ml penicillin or streptomycin. Cells were kept in a humidified, 5% CO2 atmosphere at 37° C. Cells were transfected using JetPEI (PolyPlus Transfection). The cells were transfected with 0.5 μg of the described construct, and 48 hours later, the levels of luciferase were measured with the Luciferase assay kit (Promega, USA), according to the manufacturer's instructions.
A dual luciferase reporter plasmid system was used to measure the effect of tylosin on readthrough of APC hotspot stop codon mutations in colorectal tissue culture cells. In this system, the Renilla luciferase reporter gene is located upstream of the hotspot, and the firefly luciferase reporter gene is located downstream of the hotspot in the APC wild-type or mutated sequences, and both genes are under the transcriptional control of the APC promoter (FIG. 2a). The Renilla luciferase gene serves as an internal normalization control for transfection efficiency, mRNA abundance and the levels of translation initiation, since translation of both enzymes originates from the same translation initiation signal. Following normalization, the differences in firefly luciferase activities reflect the frequency of stop codon readthrough. Constructs containing either wild-type or the APC mutated sequence at the APC hotspot codons 1061 or 1554 were transfected into HCT116 colorectal cancer cells grown in the presence of varying amounts of antibiotics of the macrolide family.

Test [2] has as its system APC. Briefly: Anti-APC immunoblot of tumor lysates from treated mice. Format: in vivo. Particulars: tumors of mice treated with 0.8 mg/ml, 0.4 mg/ml tylosin versus NT, HCT116 wild-type APC as size marker. Here is the method:
Tumors from control and treated mice were lysed, run on an SDS-PAGE gel, and transferred to a nitrocellulose membrane. The membrane was incubated with an anti-APC antibody (oncogene APC AB-2).

For test [3], the system named is β-catenin/Tcf signaling. Briefly: pTOPFLASH luciferase reporter of β-catenin/Tcf-mediated transcription. To be noted: CX-1 CRC cells (stop mutation in APC hotspot 1554); 8 μg/ml tylosin; 48 h after transfection. The format is cell-based. Here is the method:
Cells were maintained as described above. Cells were transfected with 0.5 μg of pTOPFLASH and 0.05 μg Renilla (Promega, USA). Forty-eight hours later, the levels of luciferase were measured by using the Luciferase assay kit (Promega, USA).
Colorectal cell lines show high levels of β-catenin/Tcf-mediated transcription due to mutations that lead to over-activation of the Wnt signaling pathway. To measure the effect of tylosin on levels of β-catenin/Tcf-mediated transcription, CX-1 CRC cells containing a stop mutation in APC hotspot 1554 were transfected with pTOPFLASH, a luciferase reporter plasmid that is widely used for measuring transcriptional activity of Tcf and β-catenin (pTOPFLASH contains multimerized Tcf-binding sites linked to a luciferase reporter).
A general note: Reporter assays use an easily measured gene product as a stand-in for the process of interest.

The subject of test [4] is HT-29 CRC cells. Briefly: HT-29 CRC cell tumorigenicity in nude mice, tylosin in drinking water. Format: in vivo. Particulars: 0.4 μg/ml tylosin in the drinking water. Here is the method:
Six female Nude mice (SCID) were injected with 1×10^7 HT-29 cells. For fourteen days treated groups were fed a normal mouse diet and received drinking water containing 0.4 mg/ml of tylosin. The control group received regular drinking water. Following fourteen days, the mice were sacrificed and the tumors were removed and weighed.
Truncation of APC correlates with tumor formation (15). The present inventor predicted that restoration of functional, full-length APC protein in a cell line containing only truncated APC would lead to a decrease in tumorigenesis. 1×10^7 HT-29 CRC cells containing a hotspot mutation at codon 1554 of APC were injected into twelve nude SCID mice. The treated mice group (six mice) received 0.4 μg/ml tylosin in the drinking water. […] Following fourteen days of receiving drinking water with or without tylosin, the mice were sacrificed and the tumor was removed. The tumors were weighed and the tumor mass of the tylosin-treated mice was, on average, approximately 40% lower than that of the control group (FIG. 4b).

In test [5] the test system is HT-29 CRC cells. The experiment in a line: H&E histology of tumors from control and tylosin-treated mice. Format: in vivo. To be noted: tumor sections of tylosin-treated mice versus control. An excerpt:
Tumor sections from control and treated mice were stained with H&E stain. The slides were examined by a professional pathologist.
Tumor sections from control and tylosin-treated mice were stained with Hematoxylin and Eosin (H&E) stain, a stain used routinely for tissue sections, and were examined by a professional pathologist.

Entries after “also recorded” stand apart in the source; their conditions may differ.

Regarding `CC[C@H]1OC(=O)[C@H](C)[C@@H](O[C@H]2C[C@@](C)(OC)[C@@H](O)[C@H](C)O2)[C@H](C)[C@@H](O[C@@H]2O[C@H](C)C[C@H](N(C)C)[C@H]2O)[C@](C)(O)C[C@@H](C)C(=O)[C@H](C)[C@@H](O)[C@]1(C)O` [erythromycin, Erythromycin], in test [1], the “APC stop codon readthrough (firefly luciferase normalized to Renilla)” value was “more moderate levels of stop codon readthrough”.

For the molecule `CC[C@H]1OC(=O)C[C@@H](O)[C@H](C)[C@@H](O[C@@H]2O[C@H](C)[C@@H](O[C@H]3C[C@@](C)(O)[C@@H](O)[C@H](C)O3)[C@H](N(C)C)[C@H]2O)[C@@H](CC=O)C[C@@H](C)C(=O)/C=C/C(C)=C/[C@@H]1CO[C@@H]1O[C@H](C)[C@@H](O)[C@@H](OC)[C@H]1OC` [tylosin], the “APC stop codon readthrough (firefly luciferase normalized to Renilla)” value in test [1] is “significant levels of APC stop codon readthrough; also recorded: higher levels of readthrough compared to erythromycin, spiramycin, and gentamycin”. Besides, the “expression of full-length APC in tumors (anti-APC antibodies)” value in test [2] is reported as “a higher amount of tylosin increased the expression of the full-length protein accordingly”. Also, the “expression of full-length APC in tumors (anti-APC antibodies)” value in test [2] (listed as Tylosin) is recorded as “expression of full-length APC”. Also, in test [3], the “reduction in β-catenin/Tcf/LEF transcriptional signaling” value is given as “approximately 50%”. In test [4] (nude SCID mice injected with 1×10^7 HT-29 cells, FIG. 4: ten days post-injection), the “tumor size versus control mice” value is listed as “reduced tumor size compared with the control mice; also recorded: smaller compared to that of the control group”. The “tumor mass lower than that of the control group, on average” value in test [4] (nude SCID mice, HT-29 cells, fourteen days) is on record as “approximately 40%”. Also, in test [5], the “blood supply to the tumor (H&E stain)” value is on record as “not affected”; the “tumor histology (H&E stain)” value is “necrosis and death of tumor cells”.

In the case of Spiramycin, the “APC stop codon readthrough (firefly luciferase normalized to Renilla)” value in test [1] is on record as “more moderate levels of stop codon readthrough”.

Turning to gentamycin, the “APC stop codon readthrough (firefly luciferase normalized to Renilla)” value in test [1] is given as “more moderate levels of stop codon readthrough”.

These data come from patent US9486467B2, “Method of treating colorectal cancer that expresses a mutated APC gene by administering erythromycin or tylosin” (RAMOT AT TEL-AVIV UNIVERSITY LTD., priority 2006, dated 2016).
